Source: patent US10548894B2, “Combination therapy” (Array BioPharma Inc., priority 2013, dated 2020)

Experiments:
Format in all cases: cell-based
[1] = test system: SK-MEL-5; experiment: xCELLigence real-time impedance growth assay; settings: Formula (I) 100 nM, Compound H 1 uM
Procedure: (§1) Shown is the growth in real time of the (Top A) COLO 741 and (Bottom B) SK-MEL-5 cell lines as measured using the xCELLigence impedance-based cell analyzer as discussed in Example 5. Where indicated FGF2 and Compound H were supplemented to the media at concentrations of 100 ng/ml, and 1 uM, respectively. The Compound of Formula (I) was used at 500 nM in (A) and 100 nM (B).
(§2) For CellTiter-Glo™ assays, cells were dispensed into tissue culture treated 96-well plates (Costar, catalog number 3904) with a final volume of 80 μL of medium and at density of 3000 cells per well. 12 to 24 hrs after plating, 20 μL of each compound dilution series were transferred to plates containing the cells, resulting in compound concentration ranges of 2700 nM to 3.7 nM by 3-fold dilutions and a final DMSO concentration of 0.16%. The total volume in each well was […]. Plates were incubated for 72 hrs and the effects of compounds on cell proliferation was determined using the CellTiter-Glo™ Luminescent Cell Viability Assay (CTG, Promega) and a Victor™ X4 plate reader (Perkin Elmer). For real-time growth assays cells were seeded into xCELLigence E-plates (Roche catalogue number 05232368001) at a density of 4000 cells per well in a total of 90 μl of media and 24 hrs after plating, 11 μl of media with or without compound was added to the wells. 2-4 replicate wells were plated for all cell lines and treatment groups with the exception of LGX818+FGF2 treated COLO 741 cells (N=1). Where indicated final concentrations of compounds and growth factor were 1 uM for Compound H, 100 ng/ml for FGF2, and either 100 nM (SK-MEL-5) or 500 nM (COLO 741) for the Compound of Formula (I). Cells were continuously monitored every two hours for seven days with the xCELLigence real-time impedance based cell analyzer. Impedance was measured using the electrodes on the E-plates, with increasing surface area coverage of cells creating greater electrode impedance. […] In all cases cell index values were normalized to a timepoint immediately following the addition of compound.
(§3) To determine whether rescue of BRAFV600E melanoma cell lines by FGF2 was dependent on FGFR signaling, we examined whether the selective FGFR inhibitor Compound H could prevent FGF2-mediated rescue. Two cell lines which were rescued to varying degrees by FGF2 (COLO 741, and SK-MEL-5, Table 8-1) were cultured in media containing the Compound of Formula (I) and FGF2 either in the presence or absence of Compound H and growth measured in real time.

[2] = test system: COLO 741; experiment: xCELLigence real-time impedance growth assay; settings: Formula (I) 500 nM, Compound H 1 uM
Procedure: as §1, §2, §3

[3] = test system: A-375 cells; experiment: Microscopy imaging assay (viable nuclei count), 72 h; settings: Homo sapiens, A-375 parent, single agent
Procedure: (§4) Compound stocks are prepared in DMSO at a final concentration of 10 mM. Working stocks are serially diluted in the appropriate cell culture medium in 3-fold increments to achieve final assay concentrations ranging from 2.7 μM to 1.2 nM.
(§5) A-375 and WM-266-4 cells were purchased from American Type Culture Collection (ATCC). The A-375 cells were cultured in DMEM medium (ATCC) and the WM-266-4 cells were cultured in EMEM medium (ATCC) both supplemented with 10% fetal bovine serum (Gibco) and incubated at 37° C./5% CO2. The cell lines engineered to express commonly occurring alleles indicative of resistance were acquired from Novartis-Emeryville. These resistant models include, A-375 cells expressing mutant MEK1P124L, truncated p61-BRAFV600E, or mutant NRASQ61K, and WM-266-4 cells expressing mutant MEK1C121S, truncated p61-BRAFV600E, or mutant NRASQ61K. These cells were cultured in the appropriate parental medium with selection marker G418 and in the presence of 5 uM LFE158 (MEK mutants) or LIH720 (truncated p61-BRAFV600E).
(§6) For screening, cells were seeded in 80 ul of medium in 384-well plates (Thermo Scientific, cat#4332) at 500 (A-375) or 750 (WM-266-4) cell densities per well using a MultiDrop Combi (Thermo-Fisher) with an 8-channel standard cassette. To promote an even distribution of cells across the entire well, cells were briefly centrifuged at 1000 RPM and incubated at room temperature 30 minutes. All plates were incubated at 37° C., 5% CO2 for 24 h prior to compound addition. Compound stock was freshly prepared in the appropriate culture medium, and added using a PAA robot equipped with a 200n1 pin tool. In a minimum of three replicate wells, single agent and combination effects after 72 hours, were assessed by both quantification of cellular ATP levels via Cell Titer Glo (Promega) according to the manufacturer's protocol and by microscopy imaging. For imaging, cells were fixed to the plates and permeabilized with a solution of 10% PFA, 0.3% TX-100 in PBS via a WellMate dispenser with controlled dispensing speeds. Cell nuclei were stained with Hoechst 33342 (H3570, Invitrogen), and all necessary washing steps were performed by a BioTek washer.
(§7) An automated image analysis pipeline was established using custom-made scripts in the open-source, statistical programming language R, and functions of the BioConductor package EBImage. The goal was to quantify the number of viable nuclei (cells) per well as an approximation for cell viability. The pipeline was comprised of seven steps: (I.) smoothing of the image to reduce the number of intensity peaks, (II.) application of a thresholding function to separate the foreground (signal) from the background (noise), (III.) identification of local maxima in the foreground that serve as seeds for the nuclei, (IV.) filtering of local maxima in close proximity, (V.) propagation of the nuclei from remaining local maxima, (VI.) and extraction of object features from the propagated nuclei (numbers of nuclei, size features and intensity features). As a last step (VII.), to exclude debris (e.g. fragmented nuclei) from counting, objects identified in DMSO- and Staurosporin-treated wells were used to obtain feature distributions for viable and fragmented nuclei, respectively. These were used to set cut-offs differentiating between viable and fragmented nuclei. The number of fragmented nuclei was subtracted from the total number of identified objects and the result was reported as final count for that well.
(§8) Data comprised triplicate measurements for each treatment (compound) condition, 42 replicates of DMSO-treated wells, and duplicates of Staurosporin-treated wells. The data was normalized to the median of the DMSO measurements and summarized by calculating the median of the triplicates. Data was imported into Chalice to calculate compound synergies.

[4] = test system: A-375 cells expressing mutant MEK1P124L; experiment: as above; settings: Homo sapiens, A-375 MEK1P124L, single agent
Procedure: as §4, §5, §6, §7, §8

[5] = test system: A-375 cells expressing mutant NRASQ61K; experiment: as above; settings: Homo sapiens, A-375 NRASQ61K, single agent
Procedure: as §4, §5, §6, §7, §8

[6] = test system: WM-266-4 cells expressing mutant MEK1C121S; experiment: as above; settings: Homo sapiens, WM-266-4 MEK1C121S, single agent
Procedure: as §4, §5, §6, §7, §8

COC(=O)N[C@@H](C)CNc1nccc(-c2cn(C(C)C)nc2-c2cc(Cl)cc(NS(C)(=O)=O)c2F)n1 [Compound of Formula (I)]
growth in real time (cell index) ([1]; SK-MEL-5, FGF2 100 ng/ml): growth suppression was abrogated
growth in real time (cell index) ([1]; SK-MEL-5, absence of FGF2): suppressed the growth
growth in real time (cell index) ([2]; COLO 741, FGF2 100 ng/ml): growth suppression was abrogated
growth in real time (cell index) ([2]; COLO 741, absence of FGF2): suppressed the growth
IC50 [3]: 4 nM
IC50 [4]: 300 nM
IC50 [5]: 133 nM
IC50 [6]: 58 nM
